Results from patent US6485713B1, “Sunscreen compositions and methods and materials for producing the same” (The C. P. Hall Company, priority 2002, dated 2002).
Values joined by “and” are separate entries in the source; they are usually repeats but may differ in a detail not shown here. Equal entries are not always repeated. Marks after values point to notes of the source that are not given here.

Test: Dielectric constants of sunscreen ingredients at 25° C.
Assay type: physicochemical
Settings: marked estimated
Excerpt: A step of determining the polarity of a mixture or an emulsion can be performed in various ways. For example, determining a polarity can include measuring a property that is a function of polarity, such as a dielectric constant. Measurement of a dielectric constant of a liquid can be performed by various sensors, such as immersion probes, flow-through probes, and cup-type probes, attached to various meters, such as those available from the Brookhaven Instruments Corporation of Holtsville, N.Y. (e.g., model BI-870) and the Scientifica Company of Princeton, N.J. (e.g. models 850 and 870). For consistency of comparison, preferably all measurements for a particular filter system are performed at substantially the same sample temperature, e.g., by use of a water bath. Generally, the measured dielectric constant of a substance will increase at lower temperatures and decrease at higher temperatures.
A mixture of solvent system and filter system, in accordance with one preferred embodiment, are combined with well-known cosmetically-acceptable additives, such as moisturizers, emollients, solvents, co-solvents, lubricants, thickeners, emulsifiers and/or other common cosmetic formulation additives for solubility of sunscreen active compounds, emulsification, thickening and to provide other skin enhancement, e.g., moisturizing properties. The compositions can be produced as oily lotions, gels, solid sticks, emulsions, aerosols, and all other forms of cosmetic compositions. The dielectric constants of various sunscreen additive materials are well known, see, Dielectric Constant Reference Guide of ASI Instruments, Inc., pages 1-64, (http://asiinstruments.com/dcl.html), hereby incorporated herein by reference.

Row | Dielectric Constant at 25° C. (ε), estimated value | Compound
1 | ~10 (estimated.) | Isododecyl alcohol dimer with HDI
2 | ~10 (estimated.) | COc1ccc(C(=O)CC(=O)c2ccc(C(C)(C)C)cc2)cc1 [Avobenzone, 4-(1,1-dimethylethyl)-4′-methoxydibenzoylmethane, reference compound]
3 | ~10 (estimated.) | isododecyl alcohol dimer with isopherone diisocyanate (IPDI) [Isododecyl alcohol dimer with IPDI]

Same assay, conditions: marked estimated, listed as avobenzone

Row | Dielectric Constant at 25° C. (ε), estimated value | Compound
4 | ~10* | COc1ccc(C(=O)CC(=O)c2ccc(C(C)(C)C)cc2)cc1 [Avobenzone, 4-(1,1-dimethylethyl)-4′-methoxydibenzoylmethane, reference compound]

Same assay, conditions: marked estimated, listed as isododecyl alcohol dimer w/HDI

Row | Dielectric Constant at 25° C. (ε), estimated value | Compound
5 | ~10* | Isododecyl alcohol dimer with HDI

Same assay, conditions: marked estimated, listed as isododecyl alcohol dimer w/IPDI

Row | Dielectric Constant at 25° C. (ε), estimated value | Compound
6 | ~10* | isododecyl alcohol dimer with isopherone diisocyanate (IPDI) [Isododecyl alcohol dimer with IPDI]

Same assay, conditions: neat ingredient

Row | Compound | Dielectric Constant at 25° C. (ε)
7 | O [Water] | 80
8 | CCCCCCCCCCCCCCCCCC(=O)OCC(CC)CCCC (centres unmarked) [Ethylhexyl stearate] | 3.05
9 | CCCCC(CC)COC(=O)c1ccccc1O (centres unmarked) [Ethylhexyl salicylate, 2-ethylhexyl salicylate, reference compound] | 6.20
10 | CCCCCCCCOC(=O)CC(O)C(=O)OCCCCCCCC (centres unmarked) [Dioctyl malate] | 4.74 and 5.78
11 | CCCCC(CC)COC(=O)C=Cc1ccc(OC)cc1 (centres unmarked) [Ethylhexyl methoxycinnamate, 2-ethylhexyl paramethoxycinnamate, reference compound] | 5.98
12 | CCCCCCC(CCCC)COC(=O)CC(O)C(=O)OCC(CCCC)CCCCCC (centres unmarked) [Dibutyloctyl malate, bis(2-butyloctyl)malate] | 4.65
13 | Diethylhexyl malate | 4.74 and 5.88
14 | CCCCCCCCCCCCCCCC(=O)OCC(CC)CCCC (centres unmarked) [Ethylhexyl palmitate] | 3.06
15 | CCCCC(CC)COC(=O)CCCCC(=O)OCC(CC)CCCC (centres unmarked) [Diethylhexyl adipate] | 4.21
16 | CCCCC(CC)COC(=O)c1ccc2cc(C(=O)OCC(CC)CCCC)ccc2c1 (centres unmarked) [Diethylhexyl 2,6-naphthalate] | 4.34
17 | CC(C)CCOC(=O)CC(O)C(=O)OCCC(C)C (centres unmarked) [Diisoamyl malate] | 7.42

Continued, values first:

Row | Dielectric Constant at 25° C. (ε) | Compound
18 | 12.43 | CCCCCCCCCC(=O)N(C)C [N,N-dimethyldecanamide]
19 | 3.20 | CCCCCCCCCCCCCCCC(=O)OC(C)C [Isopropyl palmitate]
20 | 3.88 | PPG-2 myristyl ether propionate
21 | 3.04 | Octyldodecyl neopentanoate
22 | 2.04 | CCCCCCCCCCCCCCCCCC(C)C [Isoeicosane]
23 | 3.24 | CCCCCCCCCCCCCC(=O)OC(C)C [Isopropyl myristate]
24 | 11.08 | CCCCC(CC)COC(=O)C(C#N)=C(c1ccccc1)c1ccccc1 (centres unmarked) [Octocrylene, 2-ethylhexyl-2-cyano-3,3 diphenylacrylate, reference compound]

Same assay, conditions: neat ingredient, listed as diethylhexyl malate

Row | Dielectric Constant at 25° C. (ε) | Compound
25 | 5.88 | Diethylhexyl malate

Same assay, conditions: neat ingredient, listed as octyl salicylate

Row | Dielectric Constant at 25° C. (ε) | Compound
26 | 6.2 | CCCCC(CC)COC(=O)c1ccccc1O (centres unmarked) [Ethylhexyl salicylate, 2-ethylhexyl salicylate, reference compound]

Test: Solvency testing of solvents for oxybenzone
Assay type: physicochemical
Settings: solute oxybenzone dissolved in the named solvent
Excerpt: (§1) Examples of crystalline UV filters include oxybenzone, avobenzone, and octyl triazone (sold under the trade name UVINUL T-150 by BASF Corporation) and methylbenzilidene camphor.

Row | Compound | Solvency for Oxybenzone
27 | CCCCC(CC)COC(=O)c1ccccc1O (centres unmarked) [Ethylhexyl salicylate, 2-ethylhexyl salicylate, reference compound] | 18% wt. %
28 | CCCCC(CC)COC(=O)C=Cc1ccc(OC)cc1 (centres unmarked) [Ethylhexyl methoxycinnamate, 2-ethylhexyl paramethoxycinnamate, reference compound] | 24% wt. %
29 | Diethylhexyl malate | 19% wt. % and 15% wt. %
30 | CCCCC(CC)COC(=O)CCCCC(=O)OCC(CC)CCCC (centres unmarked) [Diethylhexyl adipate] | 20% wt. %

Other lines, results leading:

Row | Solvency for Oxybenzone | Compound
31 | 38% wt. % | CCCCCCCCCC(=O)N(C)C [N,N-dimethyldecanamide]
32 | 20% wt. % | CCCCCCCCCCCCCC(=O)OC(C)C [Isopropyl myristate]
33 | 32% wt. % | CCCCC(CC)COC(=O)C(C#N)=C(c1ccccc1)c1ccccc1 (centres unmarked) [Octocrylene, 2-ethylhexyl-2-cyano-3,3 diphenylacrylate, reference compound]

Test: Solvency for crystalline UV filters, comparison with traditional solvents
Assay type: physicochemical
Settings: compared to traditional solvents used in sunscreen compositions
Excerpt: as §1

Row | ability to solvate crystalline UV filters (in words) | Compound
34 | far superior | CCCCCCCCCC(=O)N(C)C [N,N-dimethyldecanamide]

Test: not given
Settings: marked literature value, listed as benzophenone-3; cited from earlier work

Row | Compound | Dielectric Constant at 25° C. (ε), literature value
35 | COc1ccc(C(=O)c2ccccc2)c(O)c1 [Benzophenone-3, benzophenone-3] | 13^†

Same assay, conditions: marked literature value; cited from earlier work

Row | Compound | Dielectric Constant at 25° C. (ε), literature value
36 | COc1ccc(C(=O)c2ccccc2)c(O)c1 [Benzophenone-3, benzophenone-3] | 13

Test: Solvency testing of solvents for octyl triazone
Assay type: physicochemical
Settings: solute octyl triazone dissolved in the named solvent
Excerpt: as §1

Row | Compound | Solvency for Octyl triazone
37 | CCCCC(CC)COC(=O)c1ccccc1O (centres unmarked) [Ethylhexyl salicylate, 2-ethylhexyl salicylate, reference compound] | 5% wt. %
38 | CCCCC(CC)COC(=O)C=Cc1ccc(OC)cc1 (centres unmarked) [Ethylhexyl methoxycinnamate, 2-ethylhexyl paramethoxycinnamate, reference compound] | 15% wt. %
39 | Diethylhexyl malate | 5% wt. % and <5% wt. %
40 | CCCCC(CC)COC(=O)CCCCC(=O)OCC(CC)CCCC (centres unmarked) [Diethylhexyl adipate] | <5% wt. %

Other lines, results leading:

Row | Solvency for Octyl triazone | Compound
41 | 37% wt. % | CCCCCCCCCC(=O)N(C)C [N,N-dimethyldecanamide]
42 | <5% wt. % | CCCCCCCCCCCCCC(=O)OC(C)C [Isopropyl myristate]
43 | 1% wt. % | CCCCC(CC)COC(=O)C(C#N)=C(c1ccccc1)c1ccccc1 (centres unmarked) [Octocrylene, 2-ethylhexyl-2-cyano-3,3 diphenylacrylate, reference compound]

Test: Solvency testing of solvents for avobenzone
Assay type: physicochemical
Settings: solute avobenzone dissolved in the named solvent
Excerpt: as §1

Row | Compound | Solvency for Avobenzone
44 | CCCCC(CC)COC(=O)c1ccccc1O (centres unmarked) [Ethylhexyl salicylate, 2-ethylhexyl salicylate, reference compound] | 16% wt. %
45 | CCCCC(CC)COC(=O)C=Cc1ccc(OC)cc1 (centres unmarked) [Ethylhexyl methoxycinnamate, 2-ethylhexyl paramethoxycinnamate, reference compound] | 17% wt. %
46 | Diethylhexyl malate | 12.5% wt. % and 15% wt. %
47 | CCCCC(CC)COC(=O)CCCCC(=O)OCC(CC)CCCC (centres unmarked) [Diethylhexyl adipate] | 10% wt. %

Next, values leading:

Row | Solvency for Avobenzone | Compound
48 | 37% wt. % | CCCCCCCCCC(=O)N(C)C [N,N-dimethyldecanamide]
49 | 15% wt. % | CCCCCCCCCCCCCC(=O)OC(C)C [Isopropyl myristate]
50 | 27% wt. % | CCCCC(CC)COC(=O)C(C#N)=C(c1ccccc1)c1ccccc1 (centres unmarked) [Octocrylene, 2-ethylhexyl-2-cyano-3,3 diphenylacrylate, reference compound]
